Test results published in ChEMBL document CHEMBL3507680, “University of Dundee, Gates Library screen for HepG2 cell viability”.

Experiment: Human HepG2 cell viability assay in 384 well format
Format: toxicity, cell-based
Parameters: dose 125 nL, time 70.5 hour; cytotoxicity at 70.5 h: concentration not given beside the values
Settings: HepG2 cells, read-out: Inhibition

Row | Structure (SMILES) | cytotoxicity at 70.5 h [%]
1 | CN(C)C(=O)c1n[nH]c2c1CN(Cc1nccs1)CC2 | -1.73
2 | CC(C1CCN(Cc2c(Cl)cncc2Cl)CC1)N1CCN(C)CC1 (stereo unspecified) | 14.7
3 | CCOCCc1nc(CCc2ccccc2)n[nH]1 | -6.03
4 | Cc1cc(CN2C[C@@H]3COC[C@]3(CNC(=O)N3CCCC3)C2)no1 | 0.0997
5 | O=C(NCCc1c[nH]cn1)c1n[nH]c2c1CCC2 | -8.54
6 | CCCc1cnc(C)nc1N1CCC2(CC1)CNC(=O)O2 | 10.5
7 | CCS(=O)(=O)NCC1Cn2nnc(-c3cccc(C)c3)c2CO1 (stereo unspecified) | -5.93
8 | CN(C)CCN1CCCC12CCN(Cc1nccn1C)CC2 | -0.128
9 | CCn1ccc(NC(=O)CCn2nc(C)c3ccccc32)n1 | -10.3
10 | CC(=O)N(Cc1ncc(C)o1)C1CCN(Cc2ccncc2Cl)C1 (stereo unspecified) | -1.73
11 | Cc1ccc(CN(CC(=O)NCC2CCOC2)c2ccc(F)cc2)o1 (stereo unspecified) | -3.8
12 | Cc1cc2c(=O)n3c(nc2s1)CCN(Cc1cnn(C)c1C)CC3 | -11.8
13 | COc1ccc(/C=C/CN2CCN(c3ncccc3C(N)=O)CC2)cc1 | -1.81
14 | Cc1nc(CN(C)C2CCN(CC3CCC3)C2)no1 (stereo unspecified) | -4.98
15 | Cc1ncn(CCNC(=O)Nc2ccc(OC(F)(F)F)cc2)c(=O)c1C | -3.32
16 | CN(C)C(=O)CC1CC2(CCN(Cc3cccs3)CC2)c2ccccc21 (stereo unspecified) | -20
17 | CCN(C)S(=O)(=O)N(CC)Cc1ccc2c(c1)OCO2 | -17.8
18 | O=C(NCc1ccc2c(c1)OCO2)c1ccccc1C1CCNC1 (stereo unspecified) | 38
19 | O=C(c1ccco1)N1CCC2(CC1)CCN(c1ncccn1)CC2 | 4.21
20 | CSc1nc2ccsc2c(=O)n1CC(=O)N(C)c1ccccc1 | -4.9
21 | Cn1ccnc1CN1CCOCC(Cc2ccccn2)C1 (stereo unspecified) | -12.6

Row | Structure (SMILES) | cytotoxicity at 70.5 h [%]
22 | c1nc2n(c1CN1CCCCC1)CCN(C1CCOC1)CC2 (stereo unspecified) | -3.62
23 | O=S(=O)(c1cn[nH]c1)N1C[C@@H](O)[C@H](N2CCc3ccccc3C2)C1 | -7.48
24 | Cc1c(NC(=O)CN2CCN(C3CCCC3)C(=O)C2)cnn1C | -2.64
25 | Cc1nc(C2CCCN(C(=O)c3cc(C)sc3C)C2)no1 (stereo unspecified) | -2.35
26 | O=C(C1CCOCC1)N1C[C@@H]2[C@@H](C1)OCC(=O)N2CC1CC1 | -6.04
27 | CC1(C(N)=O)CCCN(c2cnccn2)C1 (stereo unspecified) | 5.53
28 | CCc1ccc(OCC(O)CN2CCN(S(C)(=O)=O)CC2)cc1 (stereo unspecified) | -5.82
29 | CC(C)CCN(C)C(=O)c1cc(CN2CCC(O)CC2)on1 | -0.516
30 | CSc1nccc(N2C[C@@H]3CC[C@H](C2)N(CC2CCC2)C3=O)n1 | 13
31 | Cc1nc2cc(CNC(=O)C3CC(=O)N(CCN(C)C)C3)ccc2n1C (stereo unspecified) | -2.99
32 | CS(=O)(=O)N1CCCCCC1C1CCN(c2ncccn2)CC1 (stereo unspecified) | 15.3
33 | Cc1c(C2SCC(=O)Nc3c2c(O)nn3C(C)C)cnn1C (stereo unspecified) | -26.6
34 | O=C(CCc1nc(-c2cccnc2)no1)NCC1CCN(C2CC2)C1 (stereo unspecified) | -17.6
35 | CCCn1ccnc1CN1CCN(C2CCOCC2)CC(C(N)=O)C1 (stereo unspecified) | -10.4
36 | Cc1cnn(C2CCCN(C(=O)COc3ccc(C(N)=O)cc3)C2)c1 (stereo unspecified) | -9.97
37 | CC(NC(=O)CN(C)C(C)C)c1ccc(Oc2cccnc2)c(F)c1 (stereo unspecified) | -4.91
38 | COCC(=O)N1CCCC1c1cccc(Nc2ncc(C)s2)n1 (stereo unspecified) | 0.0728
39 | Cn1cc(C2(C)CN(Cc3ccc(O)c(Cl)c3)CCO2)cn1 (stereo unspecified) | -6.24
40 | CS(=O)(=O)NCc1cn2c(n1)CN(Cc1cccnc1)CC2 | 9.87
41 | COCC(=O)N1CCC2(C1)c1ccccc1S(=O)(=O)N2CCC(C)C (stereo unspecified) | -5.31
42 | CC(Cn1cncn1)Nc1ccc(-c2nccn2C)nn1 (stereo unspecified) | -7.86

Row | Structure (SMILES) | cytotoxicity at 70.5 h [%]
43 | CCc1ccc(NC(=O)N2C[C@H]3C[C@H](C(=O)NC)[C@@H](C2)O3)cc1 | 3.53
44 | CCc1cnc(N)nc1N1CCCC2(CCOCC2)C1 | -3.13
45 | CN(C)CCN1C(=O)CCC12CCCN(C(=O)N(C)C)CC2 (stereo unspecified) | 0.00398
46 | Cc1nc(-c2ccncc2)nc(N(C)CCc2ccncc2)c1C | 4.43
47 | CCc1noc(CN(C)C(=O)C2COc3ccccc3C2)n1 (stereo unspecified) | -0.861
48 | OCCN1CCN(Cc2coc(-c3ccccc3Cl)n2)CC1 | -19.7
49 | Cc1n[nH]c(C)c1CNCC(O)c1ccc(F)c(F)c1 (stereo unspecified) | -3.32
50 | CNC(=O)CN1CC[C@H]2CN(C(=O)c3ccc(C)cc3)C[C@H]2C1 | -4.71
51 | CC(C)N1CCc2ncn(C(C)C)c2C1C(=O)NCCN1CCCC1 (stereo unspecified) | -7.38
52 | Cc1cn2c(=O)c(-c3ccnc(N[C@@H]4CCOC4)n3)cnc2s1 | -3.69
53 | COc1ccccc1C1CCCN1CC(=O)N1CCC(C(N)=O)CC1 (stereo unspecified) | 22.3
54 | CCOCC1CN(C(=O)Cc2cccs2)Cc2ccnn2C1 (stereo unspecified) | -9.44
55 | CC(=O)N1CCN(Cc2ccsc2)CC2(CC(=O)N(C)C2)C1 (stereo unspecified) | -12.2
56 | CN1CCC(N2Cc3nc(N)ncc3C2=O)CC1 | -11.6
57 | Nc1ccnc(CNc2cc(F)ccc2OCC2CCCO2)n1 (stereo unspecified) | -9.07
58 | O=C(C1CCCO1)N1CCC(O)(Cn2ccc3ccncc32)CC1 (stereo unspecified) | 15.9
59 | O=C(Cc1cccs1)N1CC[C@H]2[C@H]1CCN2Cc1cccnc1 | -6.88
60 | CSCCC(NC(=O)c1ccco1)C(=O)N(C)Cc1ccsc1 (stereo unspecified) | -4.71
61 | CCc1nnc(NC(=O)c2c3c(nn2C2CCS(=O)(=O)C2)CCC3)s1 (stereo unspecified) | -6.09
62 | COCCCN1Cc2cccc(NC(=O)c3cc(F)cc(F)c3)c2C1 | 4.56
63 | CC(=O)N[C@@H]1CN(Cc2nnc(-c3ccccc3)o2)C[C@H]1C(C)C | -16.1

Row | Structure (SMILES) | cytotoxicity at 70.5 h [%]
64 | N#CC1(NC(=O)c2cc(Cl)c3c(c2)OCCCO3)CCC1 | -4.84
65 | Cc1ccccc1N1CC2(CCN(S(=O)(=O)C3CC3)C2)CC1=O (stereo unspecified) | -14.8
66 | CCNC(=O)C(C)NC(=O)c1cnc(-c2ccc(C)cc2C)s1 (stereo unspecified) | 1.57
67 | O=C(NCC1CC(=O)N(CCc2ccccc2)C1)c1ccc[nH]1 (stereo unspecified) | -8.75
68 | CC(NC(=O)NC1CCN(CC2CCCC2)CC1)c1nccs1 (stereo unspecified) | -6.39
69 | O=C(CN1CCCC1Cn1cncn1)Nc1nccs1 (stereo unspecified) | -7
70 | CC(N1CCN(C(=O)NCc2cccc(C#N)c2)CC1)C(F)(F)F (stereo unspecified) | -0.642
71 | O=C(Cc1ccc(F)cc1)N1CCCC(c2n[nH]c3nccnc23)C1 (stereo unspecified) | 11.2
72 | O=C(CCn1cccc1)NCc1ccc(CN2CCCCCC2)o1 | 0.95
73 | COc1cccc(CC2CN(C3CCC3)CCO2)c1 (stereo unspecified) | 0.0358
74 | O=C(COCCOc1ccccc1)Nc1ccnn1CC1CCOC1 (stereo unspecified) | -21.2
75 | CC(C)C(=O)Nc1ccc(Oc2ccc3c(c2)OCO3)nc1 | -10.1
76 | CN(C)c1cc(C(=O)NCCc2nnc(-c3ccco3)[nH]2)ccn1 | -5.78
77 | CC(=O)c1ccc(N2CCC3(CC2)CC(=O)N(C)C3)nc1 | 4.13
78 | CCn1cc2c(n1)CN(Cc1cnn(C)c1)CC2COCC1CC1 (stereo unspecified) | -11.6
79 | Cc1cn2c(n1)CCC(NS(=O)(=O)c1cc(C)sc1C)C2 (stereo unspecified) | -3.85
80 | Cc1noc(C)c1CN1C[C@@H](C(=O)O)[C@H](c2ccccn2)C1 | -6.58
81 | Cc1ccc(C(=O)N2CCN(CCCSCC#N)CC2)o1 | -3.91
